Assay results reported in patent US9708309B2, “Arylcyclopropylamine based demethylase inhibitors of LSD1 and their medical use” (Oryzon Genomics S.A., priority 2010, dated 2017).
Entries after “also recorded” stand apart in the source; their conditions may differ.

What was measured:
Human recombinant MAO-A = Human recombinant MAO-A (Homo sapiens (Human), UniProt P21397); assay: biochemical
Description: Human recombinant monoamine oxidase proteins MAO-A and MAO-B were purchased from Sigma Aldrich. […] In order to monitor MAO enzymatic activities and/or their inhibition rate by inhibitor(s) of interest, a fluorescent-based (inhibitor)-screening assay was set up. 3-(2-Aminophenyl)-3-oxopropanamine (kynuramine dihydrobromide, Sigma Aldrich), a non fluorescent compound was chosen as a substrate. Kynuramine is a non-specific substrate for both MAOs activities. While undergoing oxidative deamination by MAO activities, kynuramine is converted into 4-hydroxyquinoline (4-HQ), a resulting fluorescent product.
The monoamine oxidase activity was estimated by measuring the conversion of kynuramine into 4-hydroxyquinoline. Assays were conducted in 96-well black plates with clear bottom (Corning) in a final volume of 100 μL. […]
After leaving the enzyme(s) interacting with the inhibitor, 60 to 90 μM of kynuramine was added to each reaction for MAO-B and MAO-A assay respectively, and the reaction was left for 1 hour at 37° C. in the dark. […] The conversion of kynuramine to 4-hydroxyquinoline, was monitored by fluorescence (excitation at 320 nm, emission at 360 nm) using a microplate reader (Infinite 200, Tecan). Arbitrary units were used to measure levels of fluorescence produced in the absence and/or in the presence of inhibitor.
The Ki (IC50) of each inhibitor was determined at Vmax/2.

LSD1 protein = LSD1 protein (Homo sapiens (Human), UniProt O60341); settings: 25° C., H3-K4me2 peptide
Protocol: The kinetic parameters of LSD1 demethylase inhibition were obtained using the peroxidase-coupled reaction method. […] The final DMSO concentration was 0.7% and constant in all assay wells.
The conversion of the Amplex® Red reagent to resorufin due to generation of H2O2 was continuously monitored by fluorescence (excitation at 540 nm, emission at 590 nm) using a microplate reader (Infinite 200, Tecan). A solution of 1 μM H2O2 was used to calibrate the fluorescence signal and the temperature was kept constant at 25° C.
Briefly, progress curves obtained in the presence of test compound were fit to derive kobs (k) based on the following equation:
The kobs values were then used to derive the kinetic constant by using the following equations (Kitz and Wilson analysis):

MAO-B = MAO-B (Homo sapiens (Human), UniProt P27338); settings: ratio of kinact/KI MAO-B over MAO-A
Sequence of MAO-B (P27338 whole entry): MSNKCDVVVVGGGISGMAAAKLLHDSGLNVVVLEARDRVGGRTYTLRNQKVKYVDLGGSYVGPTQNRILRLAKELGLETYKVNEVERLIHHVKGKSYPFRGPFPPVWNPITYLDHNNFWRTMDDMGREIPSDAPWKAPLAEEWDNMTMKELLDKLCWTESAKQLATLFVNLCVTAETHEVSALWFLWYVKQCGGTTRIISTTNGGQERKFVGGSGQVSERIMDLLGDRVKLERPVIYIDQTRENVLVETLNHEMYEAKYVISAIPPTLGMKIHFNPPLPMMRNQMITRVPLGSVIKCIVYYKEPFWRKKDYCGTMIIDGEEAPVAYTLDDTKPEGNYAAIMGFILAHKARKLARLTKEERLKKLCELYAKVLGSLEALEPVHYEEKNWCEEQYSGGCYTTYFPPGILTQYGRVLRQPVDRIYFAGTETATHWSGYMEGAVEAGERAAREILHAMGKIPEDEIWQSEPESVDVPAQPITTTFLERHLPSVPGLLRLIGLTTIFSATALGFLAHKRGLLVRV
Protocol: For MAO-B, the protein was kept between 1.8 and 3.6 ng/ul (Sigma M7441) and kynuramine (Sigma) at 50 uM was used as substrate.

Sequence of Human recombinant MAO-A (P21397 whole entry): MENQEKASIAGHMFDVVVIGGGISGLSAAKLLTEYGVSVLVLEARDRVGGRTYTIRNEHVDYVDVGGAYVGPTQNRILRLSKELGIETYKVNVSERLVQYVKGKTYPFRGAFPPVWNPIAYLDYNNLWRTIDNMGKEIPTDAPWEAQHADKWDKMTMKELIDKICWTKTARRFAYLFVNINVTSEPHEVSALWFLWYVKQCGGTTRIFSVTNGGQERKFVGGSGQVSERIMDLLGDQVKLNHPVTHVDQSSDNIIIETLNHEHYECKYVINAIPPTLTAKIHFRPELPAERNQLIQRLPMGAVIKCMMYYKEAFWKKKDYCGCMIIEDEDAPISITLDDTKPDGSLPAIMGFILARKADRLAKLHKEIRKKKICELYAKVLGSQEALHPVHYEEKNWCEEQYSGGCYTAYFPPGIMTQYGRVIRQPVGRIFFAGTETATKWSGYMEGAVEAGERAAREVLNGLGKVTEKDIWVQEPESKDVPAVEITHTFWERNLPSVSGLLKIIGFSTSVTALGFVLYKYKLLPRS

Compound | Ki (Human recombinant MAO-A) | Catalytic efficiency kinact/KI, LSD1 (LSD1 protein) | selectivity index kinact/KI for MAO-B/MAO-A (MAO-B)
Nc1nnc(CN[C@H]2C[C@@H]2c2ccc(OCc3ccc(Cl)cc3)cc2)o1 (relative stereo) [Example 14, 5-((((trans)-2-(4-((4-chlorobenzyl)oxy)phenyl)cyclopropyl)amino)methyl)-1,3,4-oxadiazol-2-amine] | 1 to 40 µM | – | –
Nc1nnc(CN[C@H]2C[C@@H]2c2ccc(OCc3cccc(F)c3)cc2)o1 (relative stereo) [Example 12, 5-((((trans)-2-(4-((3-fluorobenzyl)oxy)phenyl)cyclopropyl)amino)methyl)-1,3,4-oxadiazol-2-amine] | 1 to 40 µM | – | –
C#CCN[C@@H]1CCc2ccccc21 [Rasagiline] | – | not active; also recorded: Inactive | 120
